Values quoted from earlier work as cited in US12213962B2, “Drug resistant immunotherapy for treatment of a cancer” (Emory University, priority 2009, dated 2025).

System: AG104 sarcoma cells
Conditions: mice transplanted with non-modified, TMTX-sensitive cells

## COc1cc(NCc2ccc3nc(N)nc(N)c3c2C)cc(OC)c1OC [TMTX, trimetrexate]
  effect on efficacy of anti-CD137 antibody: reduced the efficacy
